# Laboratory results: PMC10712727, “Safety, Tolerability, and Pharmacokinetics of Senaparib, a Novel PARP1/2 Inhibitor, in Chinese Patients With Advanced Solid Tumors: A Phase I Trial” (The Oncologist, 2023)
# Test system: patients with advanced solid tumors
# Assay: Safety: treatment-emergent and senaparib-related adverse events graded per NCI CTCAE v4.03
# Format: in vivo
# Protocol: This phase I, open-label, multicenter, dose-escalation, and dose-expansion study was conducted at three national clinical institutions in China. […] At baseline, all patients enrolled in the dose-escalation phase had to have at least one evaluable lesion, and those in the dose-expansion period had to have at least one measurable lesion, according to Response Evaluation Criteria in Solid Tumors version 1.1 (RECIST v1.1).[16] Entry to the dose-expansion cohort required the presence of a BRCA mutation, with the exception of patients with ovarian carcinoma, fallopian tube carcinoma, and primary peritoneal carcinoma. Full study eligibility criteria are provided in Supplementary Table S1.
# Dose escalation was conducted using a modified Fibonacci 3 + 3 method (Supplementary Fig. S1).[17] Patients were administered oral senaparib from a planned starting dose of 2 mg once daily (QD), with preliminary dose escalation to 120 mg via nine dose groups, in order of their entry into the study. At a given dose level, each patient received a single dose of senaparib followed by a 7-day washout period. They then entered a continuous dosing period to confirm the safety and PK profile, in which they received senaparib QD from day 1 to day 21 of each 3-week cycle. Progression to the next higher dose required approval from the Data Safety Monitoring Committee (DSMC) upon review of the safety and PK data of the previous dose. A 50-mg twice-daily (BID) dosing group was added (planned enrollment, n = 6 patients) based on a DSMC review of the safety, PK, and efficacy analysis of the completed QD dose groups in the phase I clinical trial of senaparib dose escalation in Australia (NCT03507543), which commenced prior to the start of this trial.
# The dose-expansion period included 3 populations: dose groups in which at least one patient achieved complete response (CR) or partial response (PR) per RECIST v1.1[16] and 1 dose group higher (evaluated for safety), as well as the dose group at the maximum tolerated dose (MTD)/recommended phase II dose (RP2D). Each of these groups included those patients in the respective dose-escalation group plus a planned additional 10 patients (approximately 20 patients in the MTD/RP2D group) with BRCA^mut+ solid tumors (ovarian, breast, or prostate cancer were preferred, and ovarian cancer could be BRCA wild type). Patients received senaparib monotherapy orally QD or BID (50-mg dose only) over each 3-week cycle until disease progression or unacceptable toxicity.
# DLTs were predefined toxicities (Supplementary Table S2) recorded over the 7 days following the single-dose administration of senaparib and during the first treatment cycle (day 1-day 21) for each dose group in the dose-escalation period only. The MTD was defined as the maximum dose at which ≤1/6 patients experienced a DLT. Senaparib PK parameters were derived from blood samples collected from patients after the single administration, and at regular intervals during the first cycle of the dose-escalation and dose-expansion periods. Plasma concentrations of senaparib were determined using high-performance liquid chromatography-tandem mass spectrometry. Tumor response was assessed every 6 weeks per RECIST v1.1,[16] recording objective response rate (ORR), disease control rate (DCR), duration of response (DOR), and progression-free survival (PFS) by dose level for all patients and for those harboring BRCA^mut+ tumors.
structure (smiles),measurement,setting,value
O=C(c1cc(Cn2c(=O)[nH]c(=O)c3c(F)cccc32)ccc1F)N1CCN(c2ncccn2)CC1 [Senaparib],"Pain in extremity, Gr≥3","TEAE, 120 mg QD n = 4",0 n (%)
same,"Platelet count decreased, All","TEAE, 120 mg QD n = 4",1 (25.0) n (%)
same,"Platelet count decreased, Gr≥3","TEAE, 120 mg QD n = 4",0 n (%)
same,"Protein in urine, All","TEAE, 120 mg QD n = 4",1 (25.0) n (%)
same,"Protein in urine, Gr≥3","TEAE, 120 mg QD n = 4",0 n (%)
same,"Vomiting, All","TEAE, 120 mg QD n = 4",1 (25.0) n (%)
same,"Vomiting, Gr≥3","TEAE, 120 mg QD n = 4",0 n (%)
same,"WBC decreased, All","TEAE, 120 mg QD n = 4",4 (100) n (%)
same,"WBC decreased, Gr≥3","TEAE, 120 mg QD n = 4",0 n (%)
same,"ALT increased, All","TEAE, Total N = 57",10 (17.5) n (%)
same,"ALT increased, Gr≥3","TEAE, Total N = 57",1 (1.8) n (%)
same,"AST increased, All","TEAE, Total N = 57",10 (17.5) n (%)
same,"AST increased, Gr≥3","TEAE, Total N = 57",1 (1.8) n (%)
same,"Abdominal distension, All","TEAE, Total N = 57",7 (12.3) n (%)
same,"Abdominal distension, Gr≥3","TEAE, Total N = 57",0 n (%)
same,"Anemia (incl. hemoglobin decreased), Gr≥3","TEAE, Total N = 57",12 (21.1) n (%)
same,"Appetite decreased, All","TEAE, Total N = 57",14 (24.6) n (%)
same,"Appetite decreased, Gr≥3","TEAE, Total N = 57",0 n (%)
same,"Asthenia, All","TEAE, Total N = 57",16 (28.1) n (%)
same,"Asthenia, Gr≥3","TEAE, Total N = 57",0 n (%)
same,"Blood bilirubin increased, All","TEAE, Total N = 57",8 (14.0) n (%)
same,"Blood bilirubin increased, Gr≥3","TEAE, Total N = 57",1 (1.8) n (%)
same,"Blood creatinine increased, All","TEAE, Total N = 57",8 (14.0) n (%)
same,"Blood creatinine increased, Gr≥3","TEAE, Total N = 57",0 n (%)
same,"Hypokalemia, All","TEAE, Total N = 57",6 (10.5) n (%)
same,"Hypokalemia, Gr≥3","TEAE, Total N = 57",0 n (%)
same,"Hyponatremia, All","TEAE, Total N = 57",7 (12.3) n (%)
same,"Hyponatremia, Gr≥3","TEAE, Total N = 57",1 (1.8) n (%)
same,"Nausea, All","TEAE, Total N = 57",14 (24.6) n (%)
same,"Nausea, Gr≥3","TEAE, Total N = 57",0 n (%)
same,"Neutrophil count decreased, All","TEAE, Total N = 57",12 (21.1) n (%)
same,"Neutrophil count decreased, Gr≥3","TEAE, Total N = 57",3 (5.3) n (%)
same,"Pain in extremity, All","TEAE, Total N = 57",7 (12.3) n (%)
same,"Pain in extremity, Gr≥3","TEAE, Total N = 57",2 (3.5) n (%)
same,"Platelet count decreased, All","TEAE, Total N = 57",17 (29.8) n (%)
same,"Platelet count decreased, Gr≥3","TEAE, Total N = 57",3 (5.3) n (%)
same,"Protein in urine, All","TEAE, Total N = 57",6 (10.5) n (%)
same,"Protein in urine, Gr≥3","TEAE, Total N = 57",0 n (%)
same,"Vomiting, All","TEAE, Total N = 57",12 (21.1) n (%)
same,"Vomiting, Gr≥3","TEAE, Total N = 57",2 (3.5) n (%)
same,"WBC decreased, All","TEAE, Total N = 57",25 (43.9) n (%)
same,"WBC decreased, Gr≥3","TEAE, Total N = 57",2 (3.5) n (%)
same,"ALT increased TRAE, All",Total N = 57,10 (17.5) n (%)
same,"ALT increased TRAE, Gr≥3",Total N = 57,1 (1.8) n (%)
same,"AST increased TRAE, All",Total N = 57,10 (17.5) n (%)
same,"AST increased TRAE, Gr≥3",Total N = 57,1 (1.8) n (%)
same,"Anemia TRAE, Gr≥3",Total N = 57,12 (21.1) n (%)
same,"Any TEAE, All",Total N = 57,57 (100) n (%)
same,"Any TEAE, Gr≥3",Total N = 57,27 (47.4) n (%)
same,"Any TEAE, events",Total N = 57,491 n ev
same,"Any TEAE, patients",Total N = 57,57 (100) n (%)
same,"Any TRAE, All",Total N = 57,55 (96.5) n (%)
same,"Any TRAE, Gr≥3",Total N = 57,19 (33.3) n (%)
same,"Appetite decreased TRAE, All",Total N = 57,13 (22.8) n (%)
same,"Appetite decreased TRAE, Gr≥3",Total N = 57,0 n (%)
same,"Asthenia TRAE, All",Total N = 57,15 (26.3) n (%)
same,"Asthenia TRAE, Gr≥3",Total N = 57,0 n (%)
same,"Blood bilirubin increased TRAE, All",Total N = 57,8 (14.0) n (%)
same,"Blood bilirubin increased TRAE, Gr≥3",Total N = 57,1 (1.8) n (%)
same,"Blood creatinine increased TRAE, All",Total N = 57,8 (14.0) n (%)
same,"Blood creatinine increased TRAE, Gr≥3",Total N = 57,0 n (%)
same,"Hypokalemia TRAE, All",Total N = 57,6 (10.5) n (%)
same,"Hypokalemia TRAE, Gr≥3",Total N = 57,0 n (%)
same,"Nausea TRAE, All",Total N = 57,14 (24.6) n (%)
same,"Nausea TRAE, Gr≥3",Total N = 57,0 n (%)
same,"Neutrophil count decreased TRAE, All",Total N = 57,12 (21.1) n (%)
same,"Neutrophil count decreased TRAE, Gr≥3",Total N = 57,3 (5.3) n (%)
same,"Platelet count decreased TRAE, All",Total N = 57,16 (28.1) n (%)
same,"Platelet count decreased TRAE, Gr≥3",Total N = 57,3 (5.3) n (%)
same,"SAEs, events",Total N = 57,12 n ev
same,"SAEs, patients",Total N = 57,12 (21.1) n (%)
same,"TEAE Grade ≥3, events",Total N = 57,41 n ev
same,"TEAE Grade ≥3, patients",Total N = 57,27 (47.4) n (%)
same,"TEAEs leading to death, events",Total N = 57,2 n ev
same,"TEAEs leading to death, patients",Total N = 57,2 (3.5) n (%)
same,"TEAEs leading to dose discontinuation, events",Total N = 57,10 n ev
same,"TEAEs leading to dose discontinuation, patients",Total N = 57,6 (10.5) n (%)
same,"TEAEs leading to dose interruption, events",Total N = 57,23 n ev
same,"TEAEs leading to dose interruption, patients",Total N = 57,15 (26.3) n (%)
same,"TEAEs leading to dose reduction, events",Total N = 57,10 n ev
same,"TEAEs leading to dose reduction, patients",Total N = 57,8 (14.0) n (%)
same,"TRAEs Grade ≥3, events",Total N = 57,29 n ev
same,"TRAEs Grade ≥3, patients",Total N = 57,19 (33.3) n (%)
same,"TRAEs, events",Total N = 57,403 n ev
same,"TRAEs, patients",Total N = 57,55 (96.5) n (%)
same,"Vomiting TRAE, All",Total N = 57,10 (17.5) n (%)
same,"Vomiting TRAE, Gr≥3",Total N = 57,1 (1.8) n (%)
same,"WBC decreased TRAE, All",Total N = 57,25 (43.9) n (%)
same,"WBC decreased TRAE, Gr≥3",Total N = 57,2 (3.5) n (%)
same,"All other grade ≥3 TEAEs, incidence of each",all patients N = 57,≤ 3.5%
same,"Anemia causing study drug discontinuation, patients",all patients N = 57,5.3%
same,"Grade ≥3 TEAE: anemia, incidence",all patients N = 57,21.1%
same,"Grade ≥3 TEAE: neutrophil count decreased, incidence",all patients N = 57,5.3%
same,"Grade ≥3 TEAE: platelet count decreased, incidence",all patients N = 57,5.3%
same,"Grade ≥3 TEAEs, incidence",all patients N = 57,47.4%
same,"Grade ≥3 TRAE: anemia, incidence",all patients N = 57,21.1%
same,Overall incidence of grade ≥3 TRAEs,all patients N = 57,33.3%
same,Patients with senaparib-related adverse events (TRAEs),all patients N = 57,96.5%
same,"Serious adverse events considered related to senaparib, patients",all patients N = 57,12.3%
same,"Serious adverse events, patients",all patients N = 57,21.1%
same,"TEAEs causing dose interruption, patients",all patients N = 57,26.3%
same,"TEAEs causing dose reduction, patients",all patients N = 57,14.0%
same,"TEAEs causing study drug discontinuation, patients",all patients N = 57,10.5%
same,"TEAEs, number of events",all patients N = 57,491 events
same,"Senaparib-related adverse event (TRAE): anemia, incidence","all patients N = 57, any grade",80.9%
same,"TEAE: anemia, incidence","all patients N = 57, any grade",80.9%
same,"TEAE: asthenia, incidence","all patients N = 57, any grade",28.1%
same,"TEAE: platelet count decreased, incidence","all patients N = 57, any grade",29.8%
same,"TEAE: white blood cell count (WBC) decreased, incidence","all patients N = 57, any grade",43.9%
same,"TRAE: asthenia, incidence","all patients N = 57, any grade",26.3%
same,"TRAE: platelet count decreased, incidence","all patients N = 57, any grade",28.1%
same,"TRAE: white blood cell count decreased, incidence","all patients N = 57, any grade",43.9%
same,"TEAEs resulting in death, patients","all patients N = 57, neither related to senaparib",3.5%
same,Patients with most frequent (hematologic) TRAEs of grade ≤3,in vivo,> 90%
same,Pneumonitis and venous thromboembolic events,present study,neither of which were observed
same,Secondary hematologic tumors (AML/MDS),present study population,no cases
